From US10131659B2, “Iodonium analogs as inhibitors of NADPH oxidases and other flavin dehydrogenases; formulations thereof; and uses thereof” (priority 2014, dated 2018)

Legend:
[1] = tested on: ROS production in HT-29 human colon cancer cells; assay: ROS production in HT-29 cells (chemiluminescence / DCF analytical cytometry); format: cell-based; details: treatment for 24 hr with 10 nM
[2] = tested on: HT-29 human colon cancer cells; assay: Growth inhibition of HT-29 cells by MTT assay; format: cell-based; details: Homo sapiens, HT-29; 48 hr drug exposure; read-out: IC50, HT-29 human colon cancer cell growth
Description: The compounds were analyzed for growth inhibition of HT-29 human colon cancer cells by MTT assay: 48 hr, drug exposures over several orders of concentration. The MTT assay was performed as described in Wu et al J. Immunology 190: 1859-1872, 2013.

[3] = tested on: HT-29 human colon cancer cells; details: Free Rad. Biol. Med. 57: 162-165, 2013; cited from earlier work
[4] = tested on: HT-29 human colon cancer cells; assay: Clonogenic assay, HT-29 cells; format: cell-based; details: for IC50: Homo sapiens
Description: Several iodonium analog compounds were analyzed for inhibition of HT-29 growth using a clonogenic assay performed as described in Doroshow et al Biochem. Biophys. Res. Commun. 135: 330-335, 1986.

**Q.** Which results are given for `c1ccc2c(c1)[I+]c1ccccc1-2` [Compound 13, Diphenyleneiodonium chloride, reference compound]?
**A.** ROS production in HT-29 cells [1]: significantly decreased; IC50 [2]: 300 nM; effect on cell cycle progression [3]: only G1 block; cytotoxic or cytostatic character [4]: cytostatic; exposure required to inhibit growth / cell reproduction [4]: requires prolonged exposure; IC50 ([4]; HT-29, 240 h, 10 days exposure, read-out: IC50 clonogenic survival, 10 days drug exposure): ~10 nM; IC50 ([4]; HT-29, read-out: IC50 (±SE) clonogenic survival, 2 hrs drug exposure, 2 hrs exposure): 9300 ± 3900 nM; IC50 ([4]; HT-29, read-out: IC50 (±SE) clonogenic survival, 6 hrs drug exposure, 6 hrs exposure): 799 ± 180 nM
